Where “and” joins values, the source holds several entries; their conditions need not be identical. Identical values can stand only once. Like-named read-outs stand apart in the source and are kept apart here.
Tests used:
[1] = test system: p53 signaling (p53RE-bla HCT-116 cells); assay: cells; type: cell-based; details: for Emax: HCT-116, read-out: efficacy
[2] = test system: p53 signaling (p53RE-bla HCT-116 cells); assay: cells; details: Homo sapiens
[3] = test system: p53 signaling (p53RE-bla HCT-116 cells); assay: cells; type: cell-based
[4] = test system: p53 signaling (p53RE-bla HCT-116 cells); assay: cells; type: cell-based; remark: listed apart in the source
[5] = test system: p53 signaling (p53RE-bla HCT-116 cells)
[6] = test system: p53 signaling (p53RE-bla HCT-116 cells); remark: listed apart in the source
[7] = HCT-116, read-out: p53 activation EC50, cherry pick confirmation
[8] = HCT-116, read-out: p53 activation EC50, primary screening
[9] = HCT-116, read-out: p53 activation efficacy, cherry pick confirmation
[10] = HCT-116, read-out: p53 activation efficacy, primary screening

| Compound | EC50 ([1]; Homo sapiens, HCT-116) [µM] | EC50 ([2]; HCT-116) [µM] | Emax ([2]; HCT-116, read-out: efficacy) [%] | EC50 ([4]; Homo sapiens, HCT-116, 0.5 h) [µM] | EC50 [2, 7] [µM] | EC50 [2, 8] [µM] | Emax [2, 9] [%] | Emax [2, 10] [%] | p53 activation EC50, cherry pick confirmation [5] | p53 activation EC50, primary screening [5] | p53 activation efficacy, cherry pick confirmation [5] | p53 activation efficacy, primary screening [5] | Viability EC50, cherry pick confirmation (p53RE-bla HCT-116 cells) | Viability EC50, primary screening (p53RE-bla HCT-116 cells) | Viability efficacy, cherry pick confirmation (p53RE-bla HCT-116 cells) | Viability efficacy, primary screening (p53RE-bla HCT-116 cells) | p53 activation EC50, cherry pick confirmation [3] | p53 activation EC50, primary screening [3] | p53 activation efficacy, cherry pick confirmation [3] | p53 activation efficacy, primary screening [3] | also measured |
| --- | --- | --- | --- | --- | --- | --- | --- | --- | --- | --- | --- | --- | --- | --- | --- | --- | --- | --- | --- | --- | --- |
| c1ccc2cc3c(cc2c1)-c1cccc2cccc-3c12 [Benzo(k)fluoranthene] | 32.9 | 37 | 565 | 10.4 | – | – | – | – | – | – | – | – | – | – | – | – | – | – | – | – | Viability EC50, HLM (p53RE-bla HCT-116 cells): inactive; Viability EC50, No MS (p53RE-bla HCT-116 cells): inactive; Viability EC50, RLM (p53RE-bla HCT-116 cells): inactive; Viability Efficacy, HLM (p53RE-bla HCT-116 cells): inactive; Viability Efficacy, No MS (p53RE-bla HCT-116 cells): inactive; Viability Efficacy, RLM (p53RE-bla HCT-116 cells): inactive; p53 activation Efficacy, No MS [3]: 189.362% and 164.004%; EC50 ([3]; Homo sapiens, HCT-116, read-out: p53 activation EC50, No MS): 8.42 µM; EC50 ([3]; read-out: p53 activation EC50, No MS): 12.2 µM |
| CCc1c2c(nc3ccc(OC(=O)N4CCC(N5CCCCC5)CC4)cc13)-c1cc3c(c(=O)n1C2)COC(=O)[C@]3(O)CC [Irinotecan, reference compound] | 0.29 | 0.23 | 109 | – | – | – | – | – | – | – | – | – | – | – | – | – | – | – | – | – | Emax ([1]; Homo sapiens): 79.9%; EC50 [4]: Inactive |
| COP(=S)(OC)Oc1ccc([N+](=O)[O-])c(C)c1 [Fenitrothion] | 10.4 | 9.91 | 116 | 4.18 | 9.34 | 2.58 | 93.3 | 59.9 | inactive | inactive | inactive | inactive | inactive | inactive | inactive | inactive | inactive | inactive | inactive | inactive | – |
| COP(=O)(OC)O/C(=C\Cl)c1cc(Cl)c(Cl)cc1Cl [Tetrachlorvinphos (Gardona), Tetrachlorvinphos] | 18.1 | 10.5 | 39.9 | 2.53 | – | – | – | – | – | – | – | – | – | – | – | – | – | – | – | – | – |
| Aflatoxin B1 [reference compound] | – | – | – | – | – | – | – | – | – | – | – | – | – | – | – | – | – | – | – | – | EC50 [1]: inactive; EC50 [5]: 4.5 µM and 5.3 µM and 3 µM; p53 activation efficacy [6]: 77.9079 and 59.8273; potency in the confirmation study compared to the primary screening [6]: tenfold higher potency; EC50 [4]: inactive |
| COP(=S)(OC)Oc1nc(Cl)c(Cl)cc1Cl [Chlorpyrifos-methyl] | 24 | 15.5 | 45 | 1.78 | 21.6 | 11 | 62.8 | 36.2 | inactive | inactive | inactive | inactive | inactive | inactive | inactive | inactive | inactive | inactive | inactive | inactive | – |
| O=C(O)CCCc1ccc(N(CCCl)CCCl)cc1 [Chlorambucil] | – | – | – | – | – | – | – | – | – | – | – | – | – | – | – | – | – | – | – | – | EC50 ([2]; HCT-116, read-out: p53 activation EC50): 22.6 µM; Emax ([2]; HCT-116, read-out: p53 activation efficacy): 25.2%; p53 activation EC50 [5]: inactive; p53 activation efficacy [5]: inactive; p53 activation EC50 [6]: inactive; Viability EC50 (p53RE-bla HCT-116 cells): inactive; Viability efficacy (p53RE-bla HCT-116 cells): inactive; p53 activation efficacy [3]: 39.7467; EC50 ([3]; Homo sapiens, HCT-116, read-out: p53 activation EC50): 25.7 µM; Emax ([3]; Homo sapiens, HCT-116, read-out: p53 activation efficacy): 31.3%; EC50 ([3]; read-out: p53 activation EC50): 37.3 µM |
| C=CC1(C)OC(=O)N(c2cc(Cl)cc(Cl)c2)C1=O (stereo not drawn) [Vinclozolin] | – | – | – | – | – | 16.9 | – | 39.4 | inactive | inactive | inactive | inactive | inactive | inactive | inactive | inactive | inactive | inactive | inactive | inactive | p53 activation EC50, cherry pick confirmation [6]: inactive; p53 activation efficacy, cherry pick confirmation [6]: inactive |
| c1cc2ccc3cccc4ccc(c1)c2c34 [Pyrene] | – | – | – | – | – | 21.7 | – | 51.6 | inactive | inactive | inactive | inactive | inactive | inactive | inactive | inactive | inactive | inactive | inactive | inactive | p53 activation EC50, cherry pick confirmation [6]: inactive; p53 activation efficacy, cherry pick confirmation [6]: inactive |
| Cc1cc(OC(=O)N(C)C)nn1C(=O)N(C)C [Dimetilan] | 5.11 | 5.44 | 34.6 | – | 6.19 | – | 33.8 | – | inactive | – | inactive | – | inactive | inactive | inactive | inactive | inactive | inactive | inactive | inactive | Emax ([1]; Homo sapiens): 43.6%; EC50 [4]: Inactive |
| COP(N)(=S)Oc1ccccc1C(=O)OC(C)C (stereo not drawn) [Isocarbophos] | 1.86 | 4.93 | 83.1 | 25.6 | 3.72 | – | 78.7 | – | inactive | – | inactive | – | inactive | inactive | inactive | inactive | – | inactive | – | inactive | EC50 ([3]; Homo sapiens, HCT-116, read-out: p53 activation EC50, cherry pick confirmation): 2.05 µM; Emax ([3]; Homo sapiens, HCT-116, read-out: p53 activation efficacy, cherry pick confirmation): 32.4% |
| c1ccc2c(c1)-c1cccc3cccc-2c13 [Fluoranthene] | – | – | – | – | – | 24.4 | – | 33.6 | inactive | inactive | inactive | inactive | inactive | inactive | inactive | inactive | inactive | inactive | inactive | inactive | p53 activation EC50, cherry pick confirmation [6]: inactive; p53 activation efficacy, cherry pick confirmation [6]: inactive |
